Reference: patent US7592160B2, “Processes for producing isomaltose and isomaltitol and use thereof” (Kabushiki Kaisha Hayashibara Seibutsu Kagaku Kenkyujo, priority 2001, dated 2009)

Columns and labels:
[1] = tested on: α-isomaltosylglucosaccharide-forming enzyme; assay: Influence of metal ions on α-isomaltosylglucosaccharide-forming enzyme activity (N75 strain); type: biochemical, Bacillus globisporus N75 strain; details: for Relative activity (%): in the presence of 1 mM of each metal-ion, None = 100
Procedure: (§1) About 20 L of a fresh preparation of the same liquid culture medium as used in the above seed culture were placed in a 30-L fermentor, sterilized by heating, and then cooled to 27° C. and inoculated with 1% (v/v) of the seed culture, followed by culturing at 27° C. and pH 6.0 to 8.0 for 48 hours under aeration-agitation conditions. […] These activities were assayed as follows: The activity of α-isomaltosylglucosaccharide-forming enzyme was assayed by dissolving maltotriose in 100 mM acetate buffer (pH 6.0) to give a concentration of 2% (w/v) for a substrate solution, adding a 0.5 ml of an enzyme solution to a 0.5 ml of the substrate solution, enzymatically reacting the mixture solution at 35° C. for 60 min, suspending the enzymatic reaction by boiling the solution for 10 min, and quantifying maltose, among the isomaltosyl maltose and maltose formed mainly in the reaction mixture, on HPLC disclosed in Experiment 1. One unit activity of α-isomaltosylglucosaccharide-forming enzyme is defined as the enzyme amount that forms one micromole of maltose per minute under the above enzymatic reaction conditions. Throughout the specification, the enzymatic activity of α-isomaltosylglucosaccharide-forming enzyme means the unit(s) assayed as above.
(§2) The influence of metal ions on the activity of α-isomaltosylglucosaccharide-forming enzyme was examined in the presence of 1 mM of each metal-ion according to the assay for its enzyme activity.

[2] = tested on: α-isomaltosylglucosaccharide-forming enzyme; assay: Influence of metal ions on α-isomaltosylglucosaccharide-forming enzyme activity (C9 strain); type: biochemical, Bacillus globisporus C9 strain; details: for effect on the enzyme activity, in words: 1 mM, Table 3; for Relative activity (%): in the presence of 1 mM of each metal-ion, None = 100
Procedure: as §1, §2

[3] = tested on: α-isomaltosylglucosaccharide-forming enzyme; assay: Influence of metal ions on α-isomaltosylglucosaccharide-forming enzyme activity (A19 strain); type: biochemical, Arthrobacter globiformis A19 strain; details: for Relative activity (%): in the presence of 1 mM of each metal-ion, None = 100
[4] = tested on: α-isomaltosyl-transferring enzyme; assay: Influence of metal ions on α-isomaltosyl-transferring enzyme activity (N75 strain); type: biochemical, Bacillus globisporus N75 strain; details: for Relative activity (%): in the presence of 1 mM of each metal-ion, None = 100
Procedure: (§3) The activity of α-isomaltosyl-transferring enzyme was assayed by dissolving panose in 100 mM acetate buffer (pH 6.0) to give a concentration of 2% (w/v) for a substrate solution, adding a 0.5 ml of an enzyme solution to 0.5 ml of the substrate solution, enzymatically reacting the mixture solution at 35° C. for 30 min, suspending the enzymatic reaction by boiling the solution for 10 min, and quantifying glucose, among the cyclotetrasaccharide and glucose formed mainly in the reaction mixture, by the glucose oxidase method. One unit activity of α-isomaltosyl-transferring enzyme is defined as the enzyme amount that forms one micromole of glucose per minute under the above enzymatic reaction conditions. Throughout the specification, the enzymatic activity of α-isomaltosyl-transferring enzyme means the unit(s) assayed as above.
The influence of temperature and pH on the activity of α-isomaltosyl-transferring enzyme was examined in accordance with the assay for its enzyme activity. […] The thermal stability of the enzyme was determined by incubating the testing enzyme solutions in the form of 20 mM acetate buffer (pH 6.0) at prescribed temperatures for 60 min, cooling the resulting enzyme solutions with water, and assaying the remaining enzyme activity of each solution. The pH stability of the enzyme was determined by keeping the testing enzyme solutions in the from of 50 mM buffers having prescribed pHs at 4° C. for 24 hours, adjusting the pH of each solution to 6.0, and assaying the remaining enzyme activity of each solution. […] The influence of metal ions on the activity of α-isomaltosyl-transferring enzyme was examined in the presence of 1 mM of each metal-ion according to the assay for its enzyme activity.

[5] = tested on: α-isomaltosyl-transferring enzyme; assay: Influence of metal ions on α-isomaltosyl-transferring enzyme activity (C9 strain); type: biochemical, Bacillus globisporus C9 strain; details: for Relative activity (%): in the presence of 1 mM of each metal-ion, None = 100
Procedure: as §3
(§4) The influence of metal ions on the activity of α-isomaltosyl-transferring enzyme was examined in the presence of 1 mM of each metal-ion according to the assay for its enzyme activity.

[6] = tested on: α-isomaltosylglucosaccharide-forming enzyme; assay: Influence of metal ions on α-isomaltosylglucosaccharide-forming enzyme activity (C11 strain); type: biochemical, Bacillus globisporus C11 strain; details: for effect on the enzyme activity, in words: 1 mM, Table 7; for Relative activity (%): in the presence of 1 mM of each metal-ion, None = 100
[7] = tested on: α-isomaltosyl-transferring enzyme; assay: Influence of metal ions on α-isomaltosyl-transferring enzyme activity (C11 strain); type: biochemical, Bacillus globisporus C11 strain; details: for Relative activity (%): in the presence of 1 mM of each metal-ion, None = 100
Procedure: as §3, §4

[8] = tested on: α-isomaltosyl-transferring enzyme; assay: Influence of metal ions on α-isomaltosyl-transferring enzyme activity (S1 strain); type: biochemical, Arthrobacter ramosus S1 strain; details: for Relative activity (%): in the presence of 1 mM of each metal-ion, None = 100
Procedure: as §3, §4

SMILES: [Ba+2] [Ba^2+]
- Relative activity (%) [1]: 84%
- effect on the enzyme activity, in words [2]: also inhibited
- Relative activity (%) [2]: 65%
- Relative activity (%) [3]: 99%
- Relative activity (%) [4]: 102%
- Relative activity (%) [5]: 102%
- effect on the enzyme activity, in words [6]: also inhibited
- Relative activity (%) [6]: 65%
- Relative activity (%) [7]: 90%
- Relative activity (%) [8]: 97%

SMILES: [Cu+2] [Cu^2+]
- effect on the enzyme activity, in words ([1]; 1 mM, Table 13): strongly inhibited
- Relative activity (%) [1]: 7%
- effect on the enzyme activity, in words [2]: strongly inhibited
- Relative activity (%) [2]: 15%
- effect on the enzyme activity, in words ([3]; 1 mM, Table 19): strongly inhibited
- Relative activity (%) [3]: 0%
- effect on the enzyme activity, in words ([4]; 1 mM, Table 14): also inhibited
- Relative activity (%) [4]: 15%
- effect on the enzyme activity, in words ([5]; 1 mM, Table 4): also inhibited
- Relative activity (%) [5]: 57%
- effect on the enzyme activity, in words [6]: strongly inhibited
- Relative activity (%) [6]: 23%
- effect on the enzyme activity, in words ([7]; 1 mM, text on Table 8): also inhibited
- Relative activity (%) [7]: 56%
- effect on the enzyme activity, in words ([8]; 1 mM, Table 21): also inhibited
- Relative activity (%) [8]: 2%
